Results published in ChEMBL document CHEMBL4177667, “Design, synthesis, and anticancer properties of isocorydine derivatives” (Bioorg Med Chem, 2017).
pIC50: −log10 of the molar value. In brackets after ≈: the same amount, converted by molar mass. Activity calls are given as the source filed them. The calls are words filed in the database; no cut-off is given here.

How the values were obtained:
MGC-803 = experiment: Antiproliferative activity against human MGC803 cells after 48 hrs by MTT assay; assay type: functional, cell-based; conditions: MGC-803, 48 h
U-251 = experiment: Antiproliferative activity against human U251 cells after 48 hrs by MTT assay; assay type: functional, cell-based; conditions: U-251, 48 h
SMMC-7721 = experiment: Antiproliferative activity against human SMMC7721 cells after 48 hrs by MTT assay; assay type: functional, cell-based; conditions: SMMC-7721, 48 h
MDA-MB-231 = experiment: Antiproliferative activity against human MDA-MB-231 cells after 48 hrs by MTT assay; assay type: functional, cell-based; conditions: MDA-MB-231, 48 h
HepG2 [1] = experiment: Antiproliferative activity against human HepG2 cells after 72 hrs by MTT assay; assay type: functional, cell-based; conditions: HepG2, 72 h
HepG2 [2] = experiment: Synergistic growth inhibition against human HepG2 cells assessed as fold change in sorafenib IC50 at 10 ug/ml after 24 hrs by MTT assay; assay type: functional
HepG2 [3] = experiment: Synergistic growth inhibition against human HepG2 cells assessed as fold change in sorafenib IC50 at 5 ug/ml after 24 hrs by MTT assay; assay type: functional
HepG2 [4] = experiment: Synergistic growth inhibition against human HepG2 cells assessed as fold change in sorafenib IC50 at 2.50 ug/ml after 24 hrs by MTT assay; assay type: functional
HepG2 [5] = experiment: Cell cycle arrest in human HepG2 cells assessed as decrease in accumulation of cells at G0/G1 phase at 10 ug/ml after 48 hrs by propidium iodide staining-based flow cytometric analysis; assay type: functional
HepG2 [6] = experiment: Cell cycle arrest in human HepG2 cells assessed as increase in accumulation of cells at G2/M phase at 10 ug/ml after 48 hrs by propidium iodide staining-based flow cytometric analysis; assay type: functional
HepG2 [7] = experiment: Synergistic cell cycle arrest in human HepG2 cells assessed as decrease in accumulation of cells at G0/G1 phase at 10 ug/ml after 48 hrs in presence of sorafenib by propidium iodide staining-based flow cytometric analysis; assay type: functional
HepG2 [8] = experiment: Induction of apoptosis in human HepG2 cells assessed as early apoptotic cells at 5 ug/ml after 24 hrs by Annexin V-FITC/propidium iodide staining-based flow cytometric analysis (reference value: 0.18%); assay type: functional
HepG2 [9] = experiment: Induction of apoptosis in human HepG2 cells assessed as late apoptotic cells at 5 ug/ml after 24 hrs by Annexin V-FITC/propidium iodide staining-based flow cytometric analysis (reference value: 0%); assay type: functional
HepG2 [10] = experiment: Induction of apoptosis in human HepG2 cells assessed as early apoptotic cells at 10 ug/ml after 24 hrs by Annexin V-FITC/propidium iodide staining-based flow cytometric analysis (reference value: 0.18%); assay type: functional
HepG2 [11] = experiment: Induction of apoptosis in human HepG2 cells assessed as late apoptotic cells at 10 ug/ml after 24 hrs by Annexin V-FITC/propidium iodide staining-based flow cytometric analysis (reference value: 0%); assay type: functional
HepG2 [12] = experiment: Synergistic induction of apoptosis in human HepG2 cells assessed as early apoptotic cells at 10 ug/ml after 24 hrs in presence of sorafenib by Annexin V-FITC/propidium iodide staining-based flow cytometric analysis (reference value: 0.18%); assay type: functional
HepG2 [13] = experiment: Synergistic induction of apoptosis in human HepG2 cells assessed as late apoptotic cells at 10 ug/ml after 24 hrs in presence of sorafenib by Annexin V-FITC/propidium iodide staining-based flow cytometric analysis (reference value: 0%); assay type: functional
HepG2 [14] = experiment: Downregulation of C-myc protein levels in human HepG2 cells after 48 hrs by Western blot analysis; assay type: functional, cell-based
HepG2 [15] = experiment: Downregulation of beta-Catenin protein levels in human HepG2 cells after 48 hrs by Western blot analysis; assay type: functional, cell-based
HepG2 [16] = experiment: Downregulation of cyclin D1 protein levels in human HepG2 cells after 48 hrs by Western blot analysis; assay type: functional, cell-based
HepG2 [17] = experiment: Downregulation of Ki67 protein levels in human HepG2 cells after 48 hrs by Western blot analysis; assay type: functional, cell-based
HepG2 [18] = experiment: Synergistic downregulation of C-myc protein levels in human HepG2 cells at 10 ug/ml after 48 hrs in presence of sorafenib by Western blot analysis; assay type: functional, cell-based
HepG2 [19] = experiment: Synergistic downregulation of beta-catenin protein levels in human HepG2 cells at 10 ug/ml after 48 hrs in presence of sorafenib by Western blot analysis; assay type: functional, cell-based
HepG2 [20] = experiment: Synergistic downregulation of cyclin D1 protein levels in human HepG2 cells at 10 ug/ml after 48 hrs in presence of sorafenib by Western blot analysis; assay type: functional, cell-based
HepG2 [21] = experiment: Synergistic downregulation of Ki67 protein levels in human HepG2 cells at 10 ug/ml after 48 hrs in presence of sorafenib by Western blot analysis; assay type: functional, cell-based
HepG2 [22] = experiment: Upregulation of vimentin protein levels in human HepG2 cells at 5 to 20 ug/ml after 48 hrs by Western blot analysis; assay type: functional, cell-based
HepG2 [23] = experiment: Synergistic upregulation of vementin protein levels in human HepG2 cells at 10 ug/ml after 48 hrs in presence of sorafenib by Western blot analysis; assay type: functional, cell-based
H22 [24] = experiment: Antitumor activity against mouse H22 cells implanted in mouse assessed as tumor growth inhibition at 150 mg/kg, ip qd administered for 10 consecutive days measured after 24 hrs post last dose relative to control; assay type: functional; conditions: read-out: TGI
H22 [25] = experiment: Antitumor activity against mouse H22 cells implanted in mouse assessed as tumor growth inhibition at 50 mg/kg, ip qd administered for 10 consecutive days measured after 24 hrs post last dose relative to control; assay type: functional; conditions: read-out: TGI
H22 [26] = experiment: Synergistic antitumor activity against mouse H22 cells implanted in mouse assessed as tumor growth inhibition at 150 mg/kg, ip or ig qd administered for 10 consecutive days measured after 24 hrs post last dose in presence of sorafenib relative to control; assay type: functional; conditions: read-out: TGI
H22 [27] = experiment: Synergistic antitumor activity against mouse H22 cells implanted in mouse assessed as tumor growth inhibition at 100 mg/kg, ip or ig qd administered for 10 consecutive days measured after 24 hrs post last dose in presence of sorafenib relative to control; assay type: functional; conditions: read-out: TGI
H22 [28] = experiment: Synergistic antitumor activity against mouse H22 cells implanted in mouse assessed as tumor growth inhibition at 50 mg/kg, ip or ig qd administered for 10 consecutive days measured after 24 hrs post last dose in presence of sorafenib relative to control; assay type: functional; conditions: read-out: TGI
H22 [29] = experiment: Antitumor activity against mouse H22 cells implanted in mouse assessed as tumor growth inhibition at 100 mg/kg, ip qd administered for 10 consecutive days measured after 24 hrs post last dose relative to control; assay type: functional; conditions: read-out: TGI
H22 [30] = experiment: Antitumor activity against mouse H22 cells implanted in mouse assessed as tumor growth inhibition at 150 mg/kg, ig qd administered for 10 consecutive days measured after 24 hrs post last dose relative to control; assay type: functional; conditions: H22, po, read-out: TGI
H22 [31] = experiment: Antitumor activity against mouse H22 cells implanted in mouse assessed as tumor growth inhibition at 100 mg/kg, ig qd administered for 10 consecutive days measured after 24 hrs post last dose relative to control; assay type: functional; conditions: H22, po, read-out: TGI
H22 [32] = experiment: Antitumor activity against mouse H22 cells implanted in mouse assessed as tumor growth inhibition at 50 mg/kg, ig qd administered for 10 consecutive days measured after 24 hrs post last dose relative to control; assay type: functional; conditions: H22, po, read-out: TGI
HepG2 [33] = experiment: Induction of apoptosis in human HepG2 cells assessed as viable cells at 5 ug/ml after 24 hrs by Annexin V-FITC/propidium iodide staining-based flow cytometric analysis (reference value: 99.82%); assay type: functional; conditions: HepG2, 24 h, read-out: Activity
HepG2 [34] = experiment: Induction of apoptosis in human HepG2 cells assessed as necrotic cells at 5 ug/ml after 24 hrs by Annexin V-FITC/propidium iodide staining-based flow cytometric analysis (reference value: 0%); assay type: functional
HepG2 [35] = experiment: Induction of apoptosis in human HepG2 cells assessed as viable cells at 10 ug/ml after 24 hrs by Annexin V-FITC/propidium iodide staining-based flow cytometric analysis (reference value: 99.82%); assay type: functional; conditions: HepG2, 24 h, read-out: Activity
HepG2 [36] = experiment: Induction of apoptosis in human HepG2 cells assessed as necrotic cells at 10 ug/ml after 24 hrs by Annexin V-FITC/propidium iodide staining-based flow cytometric analysis (reference value: 0%); assay type: functional
HepG2 [37] = experiment: Synergistic induction of apoptosis in human HepG2 cells assessed as viable cells at 10 ug/ml after 24 hrs in presence of sorafenib by Annexin V-FITC/propidium iodide staining-based flow cytometric analysis (reference value: 99.82%); assay type: functional; conditions: HepG2, 24 h, read-out: Activity
HepG2 [38] = experiment: Synergistic induction of apoptosis in human HepG2 cells assessed as necrotic cells at 10 ug/ml after 24 hrs in presence of sorafenib by Annexin V-FITC/propidium iodide staining-based flow cytometric analysis (reference value: 0%); assay type: functional
HepG2 [39] = experiment: cells; conditions: Homo sapiens, HepG2, 48 h
HeLa = experiment: cells; conditions: Homo sapiens, 48 h
HepG2 [40] = experiment: cells; conditions: Homo sapiens, HepG2, 24 h
Description: Antiproliferative activity against human HepG2 cells after 24 hrs by MTT assay

In the case of `COc1cc(NC(=O)Nc2ccc(Cl)c(C(F)(F)F)c2)c2c(c1O)-c1c(OC)c(OC)cc3c1[C@H](C2)N(C)CC3`, the pIC50 (MGC-803) was 4.78, the IC50 (U-251) was 10.1 µg/mL (≈ 17.5 µM) and the IC50 (SMMC-7721) was 18.6 µg/mL (≈ 32.2 µM). For the same molecule, the IC50 (MDA-MB-231) was 15.6 µg/mL (≈ 27 µM), the IC50 (HepG2 [1]) was 6.7 µg/mL (≈ 11.6 µM) and the “fold change (FC)” value (HepG2 [2]) was 2.04. The “fold change (FC)” value (HepG2 [3]) was 1.25, the “fold change (FC)” value (HepG2 [4]) was 0.91 and the Activity (HepG2 [5]) was “Active”. The Activity (HepG2 [6]) was “Active”, the Activity (HepG2 [7]) was “Active” and the Activity (HepG2 [8]) was 6.8%. The Activity (HepG2 [9]) was 2.14%, the Activity (HepG2 [10]) was 3.11% and the Activity (HepG2 [11]) was 8.78%. The Activity (HepG2 [12]) was 44.33%, the Activity (HepG2 [13]) was 19.34% and the Activity (HepG2 [14]) was “Dose-dependent effect”. The Activity (HepG2 [15]) was “Dose-dependent effect”, the Activity (HepG2 [16]) was “Dose-dependent effect” and the Activity (HepG2 [17]) was “Dose-dependent effect”. The Activity (HepG2 [18]) was “Active”, the Activity (HepG2 [19]) was “Active” and the Activity (HepG2 [20]) was “Active”. The Activity (HepG2 [21]) was “Active”, the Activity (HepG2 [22]) was “Active” and the Activity (HepG2 [23]) was “inactive”. The inhibition in vivo at 150 mg/kg (H22 [24]) was 50.8%, the inhibition in vivo at 50 mg/kg (H22 [25]) was 40.3% and the inhibition in vivo at 150 mg/kg (H22 [26]) was 70.6%. It also gave an inhibition in vivo at 100 mg/kg (H22 [27]) of 65.1%, an inhibition in vivo at 50 mg/kg (H22 [28]) of 63.1% and an inhibition in vivo at 100 mg/kg (H22 [29]) of 46.3%. It also gave an inhibition in vivo at 150 mg/kg (H22 [30]) of 53.4%, an inhibition in vivo at 100 mg/kg (H22 [31]) of 48.2% and an inhibition in vivo at 50 mg/kg (H22 [32]) of 40.1%. For the same molecule, the viability at 5 µg/mL (HepG2 [33]) was 91%, the Activity (HepG2 [34]) was 0.07% and the viability at 10 µg/mL (HepG2 [35]) was 88.1%. For the same molecule, the Activity (HepG2 [36]) was 0.04%, the viability at 10 µg/mL (HepG2 [37]) was 36.3% and the Activity (HepG2 [38]) was 0.06%. For the same molecule, the pIC50 (HepG2 [39]) was 4.77, the pIC50 (HeLa) was 4.58 and the IC50 (HepG2 [40]) was 16.8 µg/mL (≈ 29.1 µM).
